Assay results reported in PubChem BioAssay AID651573 (The Scripps Research Institute Molecular Screening Center, 2012).
Active and inactive are the calls of the source.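 Rule for the calls: active = percent growth at or below 50%, meaning growth inhibited by at least half; inactive = percent growth above 50%.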

Key:
Assay in all cases: growth inhibition across NCI60 tumor lines, profiling panel, STAT3 inhibitor project, cell-based, NCI60 one-dose, 10 µM (AID 651573)
Leukemia K-562 = settings: NCI60 cancer cell panel growth, SRB absorbance, 48 h, at 10 µM, hits give low values
Renal Cancer RXF 393 = settings: SRB absorbance, 48 h, at 10 µM, hits give low values
Melanoma SK-MEL-28 = settings: NCI60 cancer cell panel growth, SRB absorbance, 48 h, at 10 µM, hits give low values
Breast Cancer BT-549 = settings: SRB absorbance, 48 h, at 10 µM, hits give low values, 0 = no net growth, negative = cell kill
CNS Cancer U251 = settings: SRB absorbance, 48 h, at 10 µM, hits give low values
Renal Cancer SN12C = settings: SRB absorbance, 48 h, at 10 µM, hits give low values
Melanoma MDA-MB-435 = settings: NCI60 cancer cell panel growth, SRB absorbance, 48 h, at 10 µM, hits give low values
Melanoma SK-MEL-2 = settings: NCI60 cancer cell panel growth, SRB absorbance, 48 h, at 10 µM, hits give low values
CNS Cancer SF-268 = settings: SRB absorbance, 48 h, at 10 µM, hits give low values
[1] = system: Non-Small Cell Lung Cancer EKVX; settings: SRB absorbance, 48 h, at 10 µM, hits give low values
Melanoma SK-MEL-5 = settings: NCI60 cancer cell panel growth, SRB absorbance, 48 h, at 10 µM, hits give low values
Melanoma UACC-62 = settings: NCI60 cancer cell panel growth, SRB absorbance, 48 h, at 10 µM, hits give low values, 0 = no net growth, negative = cell kill
Renal Cancer A498 = settings: SRB absorbance, 48 h, at 10 µM, hits give low values
Renal Cancer TK-10 = settings: SRB absorbance, 48 h, at 10 µM, hits give low values
Ovarian Cancer OVCAR-3 = settings: SRB absorbance, 48 h, at 10 µM, hits give low values
Ovarian Cancer OVCAR-8 = settings: SRB absorbance, 48 h, at 10 µM, hits give low values
Breast Cancer HS 578T = settings: SRB absorbance, 48 h, at 10 µM, hits give low values
Leukemia CCRF-CEM = settings: NCI60 cancer cell panel growth, SRB absorbance, 48 h, at 10 µM, hits give low values
[2] = system: Non-Small Cell Lung Cancer NCI-H23; settings: SRB absorbance, 48 h, at 10 µM, hits give low values
[3] = system: Non-Small Cell Lung Cancer A549/ATCC; settings: SRB absorbance, 48 h, at 10 µM, hits give low values
Leukemia RPMI-8226 = settings: NCI60 cancer cell panel growth, SRB absorbance, 48 h, at 10 µM, hits give low values
Prostate Cancer DU-145 = settings: SRB absorbance, 48 h, at 10 µM, hits give low values
Renal Cancer 786-0 = settings: SRB absorbance, 48 h, at 10 µM, hits give low values
Colon Cancer SW-620 = settings: SRB absorbance, 48 h, at 10 µM, hits give low values, 0 = no net growth, negative = cell kill
Melanoma UACC-257 = settings: NCI60 cancer cell panel growth, SRB absorbance, 48 h, at 10 µM, hits give low values
Colon Cancer HCT-15 = settings: SRB absorbance, 48 h, at 10 µM, hits give low values
Colon Cancer KM12 = settings: SRB absorbance, 48 h, at 10 µM, hits give low values
Renal Cancer CAKI-1 = settings: SRB absorbance, 48 h, at 10 µM, hits give low values
CNS Cancer SF-295 = settings: SRB absorbance, 48 h, at 10 µM, hits give low values
CNS Cancer SNB-19 = settings: SRB absorbance, 48 h, at 10 µM, hits give low values
Leukemia MOLT-4 = settings: NCI60 cancer cell panel growth, SRB absorbance, 48 h, at 10 µM, hits give low values
[4] = system: Ovarian Cancer NCI/ADR-RES; settings: SRB absorbance, 48 h, at 10 µM, hits give low values
Breast Cancer MDA-MB-468 = settings: SRB absorbance, 48 h, at 10 µM, hits give low values
Melanoma LOX IMVI = settings: NCI60 cancer cell panel growth, SRB absorbance, 48 h, at 10 µM, hits give low values
Colon Cancer HCT-116 = settings: SRB absorbance, 48 h, at 10 µM, hits give low values
Ovarian Cancer SK-OV-3 = settings: SRB absorbance, 48 h, at 10 µM, hits give low values
[5] = system: Breast Cancer MDA-MB-231/ATCC; settings: SRB absorbance, 48 h, at 10 µM, hits give low values
[6] = system: Non-Small Cell Lung Cancer NCI-H460; settings: SRB absorbance, 48 h, at 10 µM, hits give low values
[7] = system: Non-Small Cell Lung Cancer NCI-H522; settings: SRB absorbance, 48 h, at 10 µM, hits give low values
[8] = system: Non-Small Cell Lung Cancer HOP-62; settings: SRB absorbance, 48 h, at 10 µM, hits give low values, 0 = no net growth, negative = cell kill
[9] = system: Non-Small Cell Lung Cancer NCI-H226; settings: SRB absorbance, 48 h, at 10 µM, hits give low values
Colon Cancer COLO 205 = settings: SRB absorbance, 48 h, at 10 µM, hits give low values, 0 = no net growth, negative = cell kill
Colon Cancer HCC-2998 = settings: SRB absorbance, 48 h, at 10 µM, hits give low values
CNS Cancer SNB-75 = settings: SRB absorbance, 48 h, at 10 µM, hits give low values
Prostate Cancer PC-3 = settings: SRB absorbance, 48 h, at 10 µM, hits give low values
Melanoma M14 = settings: NCI60 cancer cell panel growth, SRB absorbance, 48 h, at 10 µM, hits give low values
[10] = system: Non-Small Cell Lung Cancer HOP-92; settings: SRB absorbance, 48 h, at 10 µM, hits give low values, 0 = no net growth, negative = cell kill
Breast Cancer MCF7 = settings: SRB absorbance, 48 h, at 10 µM, hits give low values
Leukemia SR = settings: NCI60 cancer cell panel growth, SRB absorbance, 48 h, at 10 µM, hits give low values
Ovarian Cancer OVCAR-4 = settings: SRB absorbance, 48 h, at 10 µM, hits give low values
[11] = system: Non-Small Cell Lung Cancer NCI-H322M; settings: SRB absorbance, 48 h, at 10 µM, hits give low values
Melanoma MALME-3M = settings: NCI60 cancer cell panel growth, SRB absorbance, 48 h, at 10 µM, hits give low values

`COc1ccc(C(=O)C2CCN(c3ncnc4sccc34)CC2)cc1` was tested, and the percent growth (Leukemia K-562) was 41.4%, the percent growth (Renal Cancer RXF 393) was 102% (inactive) and the percent growth (Melanoma SK-MEL-28) was 105% (inactive). The percent growth (Breast Cancer BT-549) was 53.4% (inactive), the percent growth (CNS Cancer U251) was 77.5% (inactive) and the percent growth (Renal Cancer SN12C) was 71.2% (inactive). For the same compound, the percent growth (Melanoma MDA-MB-435) was 66.6% (inactive), the percent growth (Melanoma SK-MEL-2) was 76% (inactive) and the percent growth (CNS Cancer SF-268) was 85.4% (inactive). For the same compound, the percent growth [1] was 34.9%, the percent growth (Melanoma SK-MEL-5) was 26.5% and the percent growth (Melanoma UACC-62) was 52.7% (inactive). For the same compound, the percent growth (Renal Cancer A498) was 91.7% (inactive), the percent growth (Renal Cancer TK-10) was 73.3% (inactive) and the percent growth (Ovarian Cancer OVCAR-3) was 97.1% (inactive). The percent growth (Ovarian Cancer OVCAR-8) was 64% (inactive), the percent growth (Breast Cancer HS 578T) was 93.6% (inactive) and the percent growth (Leukemia CCRF-CEM) was 42.3%. For the same compound, the percent growth [2] was 53.4% (inactive), the percent growth [3] was 74.5% (inactive) and the percent growth (Leukemia RPMI-8226) was 27.7%. For the same compound, the percent growth (Prostate Cancer DU-145) was 98.8% (inactive), the percent growth (Renal Cancer 786-0) was 72.4% (inactive) and the percent growth (Colon Cancer SW-620) was 90.8% (inactive). For the same compound, the percent growth (Melanoma UACC-257) was 63.7% (inactive), the percent growth (Colon Cancer HCT-15) was 72.4% (inactive) and the percent growth (Colon Cancer KM12) was 87.9% (inactive). For the same compound, the percent growth (Renal Cancer CAKI-1) was 66.4% (inactive), the percent growth (CNS Cancer SF-295) was 57.1% (inactive) and the percent growth (CNS Cancer SNB-19) was 64.8% (inactive). For the same compound, the percent growth (Leukemia MOLT-4) was 57.7% (inactive), the percent growth [4] was 43.5% and the percent growth (Breast Cancer MDA-MB-468) was 18.9%. For the same compound, the percent growth (Melanoma LOX IMVI) was 40.1%, the percent growth (Colon Cancer HCT-116) was 34.4% and the percent growth (Ovarian Cancer SK-OV-3) was 89.9% (inactive). For the same compound, the percent growth [5] was 77.8% (inactive), the percent growth [6] was 71% (inactive) and the percent growth [7] was 49.2%. For the same compound, the percent growth [8] was 91.9% (inactive), the percent growth [9] was 88.8% (inactive) and the percent growth (Colon Cancer COLO 205) was 88.2% (inactive). For the same compound, the percent growth (Colon Cancer HCC-2998) was 82.3% (inactive), the percent growth (CNS Cancer SNB-75) was 104% (inactive) and the percent growth (Prostate Cancer PC-3) was 76.9% (inactive). The percent growth (Melanoma M14) was 78.5% (inactive), the percent growth [10] was 61.7% (inactive) and the percent growth (Breast Cancer MCF7) was 55.4% (inactive). The percent growth (Leukemia SR) was 47.9%.
`COc1ccc(CC2CCN(c3ncnc4sccc34)CC2)cc1` was tested, and the percent growth (Leukemia K-562) was 41.1%, the percent growth (Renal Cancer RXF 393) was 108% (inactive) and the percent growth (Melanoma SK-MEL-28) was 108% (inactive). The percent growth (Breast Cancer BT-549) was 56% (inactive), the percent growth (CNS Cancer U251) was 73.2% (inactive) and the percent growth (Renal Cancer SN12C) was 72.9% (inactive). For the same compound, the percent growth (Melanoma MDA-MB-435) was 66.9% (inactive), the percent growth (Melanoma SK-MEL-2) was 71.3% (inactive) and the percent growth (CNS Cancer SF-268) was 93.2% (inactive). For the same compound, the percent growth [1] was 39.9%, the percent growth (Melanoma SK-MEL-5) was 31.8% and the percent growth (Melanoma UACC-62) was 54.8% (inactive). The percent growth (Renal Cancer A498) was 96.1% (inactive), the percent growth (Ovarian Cancer OVCAR-4) was 50.7% (inactive) and the percent growth (Renal Cancer TK-10) was 80.4% (inactive). For the same compound, the percent growth [11] was 66.6% (inactive), the percent growth (Ovarian Cancer OVCAR-3) was 94.1% (inactive) and the percent growth (Ovarian Cancer OVCAR-8) was 65.4% (inactive). For the same compound, the percent growth (Breast Cancer HS 578T) was 90.1% (inactive), the percent growth (Leukemia CCRF-CEM) was 51% (inactive) and the percent growth [2] was 46.8%. For the same compound, the percent growth [3] was 64.2% (inactive), the percent growth (Leukemia RPMI-8226) was 25.4% and the percent growth (Prostate Cancer DU-145) was 99.4% (inactive). For the same compound, the percent growth (Renal Cancer 786-0) was 65.6% (inactive), the percent growth (Colon Cancer SW-620) was 86.9% (inactive) and the percent growth (Melanoma UACC-257) was 67.2% (inactive). For the same compound, the percent growth (Melanoma MALME-3M) was 127% (inactive), the percent growth (Colon Cancer HCT-15) was 73.7% (inactive) and the percent growth (Colon Cancer KM12) was 91.7% (inactive). For the same compound, the percent growth (Renal Cancer CAKI-1) was 66.3% (inactive), the percent growth (CNS Cancer SF-295) was 59% (inactive) and the percent growth (CNS Cancer SNB-19) was 69.3% (inactive). For the same compound, the percent growth (Leukemia MOLT-4) was 66% (inactive), the percent growth [4] was 43.4% and the percent growth (Breast Cancer MDA-MB-468) was 21.3%. For the same compound, the percent growth (Melanoma LOX IMVI) was 34.4%, the percent growth (Colon Cancer HCT-116) was 34.9% and the percent growth (Ovarian Cancer SK-OV-3) was 87.5% (inactive). The percent growth [5] was 79.8% (inactive), the percent growth [6] was 62.4% (inactive) and the percent growth [7] was 48.5%. For the same compound, the percent growth [8] was 93.6% (inactive), the percent growth [9] was 82% (inactive) and the percent growth (Colon Cancer COLO 205) was 95% (inactive). For the same compound, the percent growth (Colon Cancer HCC-2998) was 88.5% (inactive), the percent growth (CNS Cancer SNB-75) was 100% (inactive) and the percent growth (Prostate Cancer PC-3) was 81.5% (inactive). For the same compound, the percent growth (Melanoma M14) was 87.5% (inactive), the percent growth [10] was 75.4% (inactive) and the percent growth (Breast Cancer MCF7) was 55.5% (inactive). The percent growth (Leukemia SR) was 72.5% (inactive).
